Read-outs that look alike come from different tables or passages of the source.
Biological target: PI3K isoform δ (Homo sapiens (Human), UniProt O00329)
Test: TR-FRET assay of enzymatic activity of class I PI3K isoforms
Details: TR-FRET, 2× Km ATP, 2 μM PIP2, incubated for 30 minutes at 25° C.
[1] = read-out: IC50 (nM) for PI3K isoform δ (Table 3)
[2] = read-out: IC50 (nM) for PI3K isoform δ (Table 2)

Sequence of PI3K isoform δ (O00329 whole entry, canonical isoform): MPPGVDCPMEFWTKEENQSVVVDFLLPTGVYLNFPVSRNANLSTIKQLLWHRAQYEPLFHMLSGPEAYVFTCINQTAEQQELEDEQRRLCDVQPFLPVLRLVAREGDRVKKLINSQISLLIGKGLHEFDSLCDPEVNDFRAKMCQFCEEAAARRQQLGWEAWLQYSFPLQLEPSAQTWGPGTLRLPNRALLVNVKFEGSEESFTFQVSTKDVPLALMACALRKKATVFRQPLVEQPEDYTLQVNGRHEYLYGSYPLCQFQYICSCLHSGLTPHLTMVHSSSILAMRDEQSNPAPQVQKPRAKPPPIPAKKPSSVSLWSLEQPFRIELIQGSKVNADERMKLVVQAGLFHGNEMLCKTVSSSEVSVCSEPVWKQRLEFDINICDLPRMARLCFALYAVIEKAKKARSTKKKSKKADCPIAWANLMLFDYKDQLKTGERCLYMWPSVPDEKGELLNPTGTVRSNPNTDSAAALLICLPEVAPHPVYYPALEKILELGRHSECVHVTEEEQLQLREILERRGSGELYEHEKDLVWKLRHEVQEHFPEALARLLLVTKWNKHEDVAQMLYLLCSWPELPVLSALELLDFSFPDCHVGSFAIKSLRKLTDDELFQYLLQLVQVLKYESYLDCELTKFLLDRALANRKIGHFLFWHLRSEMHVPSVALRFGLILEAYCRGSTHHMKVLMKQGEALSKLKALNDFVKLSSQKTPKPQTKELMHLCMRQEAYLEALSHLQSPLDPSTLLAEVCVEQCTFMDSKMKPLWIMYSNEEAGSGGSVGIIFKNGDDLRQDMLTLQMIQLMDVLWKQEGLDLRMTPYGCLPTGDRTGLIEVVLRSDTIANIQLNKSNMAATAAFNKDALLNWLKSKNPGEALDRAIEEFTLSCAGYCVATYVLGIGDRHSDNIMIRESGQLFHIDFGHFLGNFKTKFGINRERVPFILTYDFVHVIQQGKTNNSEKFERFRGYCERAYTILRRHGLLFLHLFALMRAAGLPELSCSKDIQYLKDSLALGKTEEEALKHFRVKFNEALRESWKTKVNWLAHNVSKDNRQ
Sequence of PI3K isoform δ (P27986 whole entry partner, canonical isoform): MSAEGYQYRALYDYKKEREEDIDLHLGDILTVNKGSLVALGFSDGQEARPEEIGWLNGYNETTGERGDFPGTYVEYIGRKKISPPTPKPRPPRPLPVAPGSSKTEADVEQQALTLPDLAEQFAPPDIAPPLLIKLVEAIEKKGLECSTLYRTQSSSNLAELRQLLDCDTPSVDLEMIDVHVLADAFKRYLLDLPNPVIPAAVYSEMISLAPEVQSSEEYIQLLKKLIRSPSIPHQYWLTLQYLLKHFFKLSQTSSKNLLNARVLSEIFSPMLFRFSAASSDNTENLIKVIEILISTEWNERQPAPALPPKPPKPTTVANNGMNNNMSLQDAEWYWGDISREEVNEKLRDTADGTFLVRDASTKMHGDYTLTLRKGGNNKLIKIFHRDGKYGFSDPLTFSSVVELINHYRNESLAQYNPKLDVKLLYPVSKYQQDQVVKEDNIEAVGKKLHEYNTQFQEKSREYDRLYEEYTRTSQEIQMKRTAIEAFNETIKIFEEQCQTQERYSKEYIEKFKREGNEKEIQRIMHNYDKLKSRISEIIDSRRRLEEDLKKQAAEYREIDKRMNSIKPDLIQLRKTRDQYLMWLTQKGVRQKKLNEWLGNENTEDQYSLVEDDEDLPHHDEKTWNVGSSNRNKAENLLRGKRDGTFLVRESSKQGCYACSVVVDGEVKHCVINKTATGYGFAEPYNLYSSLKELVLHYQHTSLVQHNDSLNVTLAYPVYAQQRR
Excerpt: TR-FRET monitored the formation of 3,4,5-inositol triphosphate molecule that competed with fluorescently labeled PIP3 for binding to the GRP-1 pleckstrin homology domain protein. […] Class I PI3K isoforms were expressed and purified as heterodimeric recombinant proteins. All assay reagents and buffers for the TR-FRET assay were purchased from Millipore.

Row | SMILES | IC50 [1] [nM] | IC50 [2] [nM]
1 | N#Cc1c(N)nc(N)nc1N1CC[C@H]1c1nc2cccc(Cl)c2c(=O)n1-c1ccccc1 [Compound 68, (S)-2,4-diamino-6-(2-(5-chloro-4-oxo-3-phenyl-3,4-dihydroquinazolin-2-yl)azetidin-1-yl)pyrimidine-5-carbonitrile] | 30 | 
2 | CC(=O)c1c(N)nc(N)nc1N[C@@H](C)c1nc2cccc(Cl)c2c(=O)n1-c1cc(F)cc(F)c1 [Compound 18a, (S)-2 (1-((5-acetyl-2,6-diaminopyrimidin-4-yl)amino)ethyl)-5-chloro-3-(3,5-difluorophenyl)quinazolin-4(3H)-one] |  | 6
3 | C[C@H](Nc1nc(N)nc(N)c1Cl)c1nc2c(F)ccc(CCC(N)=O)c2c(=O)n1-c1cc(F)cc(F)c1 [Compound 41, (S)-3-(2-(1-((2,6-diamino-5-chloropyrimidin-4-yl)amino)ethyl)-3-(3,5-difluorophenyl)-8-fluoro-4-oxo-3,4-dihydroquinazoline-5-yl)propanamide] | 25 | 
4 | N#Cc1c(N)nc(N)nc1N1CCC[C@H]1c1nc2c(Cl)ccc(Cl)c2c(=O)n1-c1cccc(S(N)(=O)=O)c1 [Compound 91, (S)-3-(5,8-dichloro-2-(1-(2,6-diamino-5-cyanopyrimidin-4-yl)pyrrolidin-2-yl)-4-oxoquinazolin-3(4H)-yl)benzenesulfonamide] | 17 | 
5 | N#Cc1c(N)nc(N)nc1N[C@H](c1nc2ccc(F)c(C#N)c2c(=O)n1-c1ccccc1)C1CC1 [Compound 8a, (S)-2-(cyclopropyl((2,6-diamino-5-cyanopyrimidin-4-yl)amino)methyl)-6-fluoro-4-oxo-3-phenyl-3,4-dihydroquinazoline-5-carbonitrile] |  | 2
6 | Cc1cccc2nc([C@@H](Nc3nc(N)nc(N)c3C#N)C3CC3)n(-c3cc(F)cc(C#N)c3)c(=O)c12 [Compound 11a, (S)-2,4-diamino-6-(((3-(3-cyano-5-fluorophenyl)-5-methyl-4-oxo-3,4-dihydroquinazolin-2-yl)(cyclopropyl)methyl)amino)pyrimidine-5-carbonitrile] |  | 14
7 | N#Cc1c(N)nc(N)nc1N1C[C@H](NC(=O)CN)C[C@H]1c1nc2cccc(Cl)c2c(=O)n1-c1ccccc1 [Compound 115, 2-amino-N-((3R,5S)-5-(5-chloro-4-oxo-3-phenyl-3,4-dihydroquinazolin-2-yl)-1-(2,6-diamino-5-cyanopyrimidin-4-yl)pyrrolidin-3-yl)acetamide] | 64 | 
8 | CC1CCN(C(=O)COc2cccc3nc([C@H](C)Nc4nc(N)nc(N)c4C#N)n(-c4ccccc4)c(=O)c23)CC1 [Compound 36, (S)-2,4-diamino-6-((1-(5-(2-(4-methylpiperidin-1-yl)-2-oxoethoxy)-4-oxo-3-phenyl-3,4-dihydroquinazolin-2-yl)ethyl)amino)pyrimidine-5-carbonitrile] | 2 | 
9 | C[C@H](Nc1nc(N)nc(N)c1C#N)c1nc2c(F)ccc(CCCN3CCC(F)(F)C3)c2c(=O)n1-c1ccccc1 [Compound 55, (S)-2,4-diamino-6-((1-(5-(3-(3,3-difluoropyrrolidin-1-yl)propyl)-8-fluoro-4-oxo-3-phenyl-3,4-dihydroquinazolin-2-yl)ethyl)amino)pyrimidine-5-carbonitrile] | 0.4 | 
10 | C[C@H](Nc1nc(N)nc(N)c1C#N)c1nc2cccc(CCCN3CCOC(C)(C)C3)c2c(=O)n1-c1ccccc1 [Compound 52, (S)-2,4-diamino-6-((1-(5-(3-(2,2-dimethylmorpholino)propyl)-4-oxo-3-phenyl-3,4-dihydroquinazolin-2-yl)ethyl)amino)pyrimidine-5-carbonitrile] | 0.7 | 
11 | C[C@H](Nc1nc(N)nc(N)c1C#N)c1nc2cccc(S(=O)(=O)CCN3CCCC3)c2c(=O)n1-c1cccc(F)c1 [Compound 82, (S)-2,4-diamino-6-((1-(3-(3-fluorophenyl)-4-oxo-5-((2-(pyrrolidin-1-yl)ethyl)sulfonyl)-3,4-dihydroquinazolin-2-yl)ethyl)amino)pyrimidine-5-carbonitrile] | 2 | 
12 | N#Cc1c(N)nc(N)nc1N[C@H](c1nc2ccc(F)cc2c(=O)n1-c1cccc(F)c1)C1CC1 [Compound 16a, (S)-2,4-diamino-6-((cyclopropyl(6-fluoro-3-(3-fluorophenyl)-4-oxo-3,4-dihydroquinazolin-2-yl)methyl)amino)pyrimidine-5-carbonitrile] |  | 4
13 | C[C@H](Nc1nc(N)nc(N)c1C#N)c1nc2cccc(CCCC3CCCCC3)c2c(=O)n1-c1ccccc1 [Compound 65, (S)-2,4-diamino-6-((1-(5-(3-cyclohexylpropyl)-4-oxo-3-phenyl-3,4-dihydroquinazolin-2-yl)ethyl)amino)pyrimidine-5-carbonitrile] | 15 | 
14 | C[C@H](Nc1nc(N)nc(N)c1C#N)c1nc2cccc(SCCO)c2c(=O)n1-c1cccc(F)c1 [Compound 79, (S)-2,4-diamino-6-((1-(3-(3-fluorophenyl)-5-((2-hydroxyethyl)thio)-4-oxo-3,4-dihydroquinazolin-2-yl)ethyl)amino)pyrimidine-5-carbonitrile] | 51 | 
15 | C[C@H](Nc1nc(N)nc(Cl)c1C#N)c1nc2cccc(Cl)c2c(=O)n1-c1cc(F)cc(F)c1 [Compound 105, (S)-2-amino-4-chloro-6-((1-(5-chloro-3-(3,5-difluorophenyl)-4-oxo-3,4-dihydroquinazolin-2-yl)ethyl)amino)pyrimidine-5-carbonitrile] | 2 | 
16 | C[C@H](Nc1nc(N)nc(N)c1Cl)c1nc2cccc(CCC(N)=O)c2c(=O)n1-c1ccccc1 [Compound 43, (S)-3-(2-(1-((2,6-diamino-5-chloropyrimidin-4-yl)amino)ethyl)-4-oxo-3-phenyl-3,4-dihydroquinazoline-5-yl)propanamide] | 9 | 

Continued, values first:

Row | IC50 [1] [nM] | IC50 [2] [nM] | SMILES
17 | 30 |  | Cc1nc(N)c(Br)c(N[C@@H](C)c2nc3cccc(Cl)c3c(=O)n2-c2cc(F)cc(F)c2)n1 [Compound 21, (S)-2-(1-((6-amino-5-bromo-2-methylpyrimidin-4-yl)amino)ethyl)-5-chloro-3-(3,5-difluorophenyl)quinazolin-4(3H)-one]
18 | 0.8 |  | C[C@H](Nc1nc(F)nc(N)c1C#N)c1nc2cccc(Cl)c2c(=O)n1-c1ccccc1 [Compound 106, (S)-4-amino-6-((1-(5-chloro-4-oxo-3-phenyl-3,4-dihydroquinazolin-2-yl)ethyl)amino)-2-fluoropyrimidine-5-carbonitrile]
19 | 1.3 |  | C[C@H](Nc1nc(N)nc(N)c1C#N)c1nc2c(F)ccc(CCCN3CCCC3)c2c(=O)n1-c1ccccc1 [Compound 50, (S)-2,4-diamino-6-((1-(8-fluoro-4-oxo-3-phenyl-5-(3-(pyrrolidin-1-yl)propyl)-3,4-dihydroquinazolin-2-yl)ethyl)amino)pyrimidine-5-carbonitrile]
20 | 3 |  | C[C@H](Nc1nc(N)nc(N)c1C#N)c1nc2cccc(CCCN3CCCC3)c2c(=O)n1-c1cc(F)cc(F)c1 [Compound 51, (S)-2,4-diamino-6-((1-(3-(3,5-difluorophenyl)-4-oxo-5-(3-(pyrrolidin-1-yl)propyl)-3,4-dihydroquinazolin-2-yl)ethyl)amino)pyrimidine-5-carbonitrile]
21 | 0.1 |  | Cc1nc(N)nc(N[C@@H](C)c2nc3cccc(Cl)c3c(=O)n2-c2ccccc2)c1C#N [Compound 96, (S)-2-amino-4-((1-(5-chloro-4-oxo-3-phenyl-3,4-dihydroquinazolin-2-yl)ethyl)amino)-6-methylpyrimidine-5-carbonitrile]
22 | 6 |  | C[C@H](Nc1nc(N)nc(N)c1C#N)c1nc2cccc(OCCN3CCCCC3)c2c(=O)n1-c1ccccc1 [Compound 30, (S)-2,4-diamino-6-((1-(4-oxo-3-phenyl-5-(2-(piperidin-1-yl)ethoxy)-3,4-dihydroquinazolin-2-yl)ethyl)amino)pyrimidine-5-carbonitrile]
23 | 0.5 |  | C[C@H](Nc1nc(N)nc(N)c1C#N)c1nc2c(F)ccc(CCC(N)=O)c2c(=O)n1-c1ccccc1 [Compound 38, (S)-3-(2-(1-((2,6-diamino-5-cyanopyrimidin-4-yl)amino)ethyl)-8-fluoro-4-oxo-3-phenyl-3,4-dihydroquinazoline-5-yl)propanamide]
24 | 0.5 |  | C[C@H](Nc1nc(N)nc(N)c1C#N)c1nc2cccc(CCCN3CC(F)(F)OC(F)(F)C3)c2c(=O)n1-c1ccccc1 [Compound 54, (S)-2,4-diamino-6-((1-(4-oxo-3-phenyl-5-(3-(2,2,6,6-tetrafluoromorpholino)propyl)-3,4-dihydroquinazolin-2-yl)ethyl)amino)pyrimidine-5-carbonitrile]
25 | 1.4 |  | CC1COCC(C)N1CCCc1cccc2nc([C@H](C)Nc3nc(N)nc(N)c3C#N)n(-c3ccccc3)c(=O)c12 (stereo partly drawn) [Compound 49, 2,4-diamino-6-(((1S)-1-(5-(3-(3,5-dimethylmorpholino)propyl)-4-oxo-3-phenyl-3,4-dihydroquinazolin-2-yl)ethyl)amino)pyrimidine-5-carbonitrile]
26 | 0.5 |  | C[C@H](Nc1nc(N)nc(N)c1C#N)c1nc2cccc(CCCN3CCC(F)(F)CC3)c2c(=O)n1-c1ccccc1 [Compound 48, (S)-2,4-diamino-6-((1-(5-(3-(4,4-difluoropiperidin-1-yl)propyl)-4-oxo-3-phenyl-3,4-dihydroquinazolin-2-yl)ethyl)amino)pyrimidine-5-carbonitrile]
27 |  | 6 | N#Cc1c(N)nc(N)nc1N[C@H](c1nc2ccc(F)c(C#N)c2c(=O)n1-c1cccc(F)c1)C1CC1 [Compound 7a, (S)-2-(cyclopropyl((2,6-diamino-5-cyanopyrimidin-4-yl)amino)methyl)-6-fluoro-3-(3-fluorophenyl)-4-oxo-3,4-dihydroquinazoline-5-carbonitrile]
28 | 30 |  | C[C@H](Nc1nc(N)nc(N)c1C#N)c1nc2cccc(CCCN3CCC4(CC3)COC4)c2c(=O)n1-c1ccccc1 [Compound 64, (S)-4-((1-(5-(3-(2-oxa-7-azaspiro[3.5]nonan-7-yl)propyl)-4-oxo-3-phenyl-3,4-dihydroquinazolin-2-yl)ethyl)amino)-2,6-diaminopyrimidine-5-carbonitrile]
